A short description of data set [1]: Oral BIBN4096BS Delivery (plasma BIBN4096BS by LC/MS/MS after oral gavage with delivery agent compound). To be noted: previous studies; baseline (no delivery agent stated).
Description: Oral gavage (PO) dosing solutions of delivery agent compound and the Calcitonin gene-related peptide antagonist, 1-Piperidinecarboxamide. […] (BIBN4096BS) in water were prepared. […] The final dosing solutions were prepared by mixing the delivery agent compound with a BIBN4096BS stock solution and diluting to the desired volume (usually 1.0 mL). If necessary, the pH of the mixture was adjusted by the addition of aliquots of aqueous hydrochloric acid solution of an appropriate normality until the final pH of the dosing solution was below 7.0. The final compound amounts per dose were 25 mg/kg of BIBN4096BS, 200 mg/kg of delivery agent compound, in a total volume of 1 mL/kg.
The typical dosing and sampling protocols were as follows. Male Sprague-Dawley rats weighing between 200-250 g were fasted for 24 hours and administered ketamine (44 mg/kg) and chlorpromazine (1.5 mg/kg) 15 minutes prior to dosing. A dosing group of five rats was administered one of the dosing solutions. For oral gavage (PO) dosing, an 11 cm Rusch 8 French catheter was adapted to a 1 mL syringe with a pipette tip. The syringe was filled with dosing solution by drawing the solution through the catheter, which was then wiped dry. […] Plasma BIBN4096BS concentrations were quantified by using a liquid chromatography/mass spectrometry/mass spectrometry assay method using UV detection. […]

Structures can show the parent of a compound that is named as a salt.

As for `CCN(CC)CCNC(=O)c1cc(Cl)ccc1O` (as salt: citrate) [Compound 1, N-[2-(diethylamino)ethyl]-5-chloro-2-hydroxybenzamide Mono-citrate], the melting point was 107 to 109 °C. The same measure, in the same setting: the same measure for `CCN(CC)CCNC(=O)c1ccccc1O` (as salt: citrate) [Compound 3, N-[2-(diethylamino)ethyl]-2-hydroxybenzamide Mono-citrate]: 111 to 113 °C.

Turning to `NCCCCC(NC(=O)C(Cc1cc(Br)c(O)c(Br)c1)NC(=O)N1CCC(N2Cc3ccccc3NC2=O)CC1)C(=O)N1CCN(c2ccncc2)CC1` (stereo not drawn) [BIBN4096BS, 1-Piperidinecarboxamide. N-[2-[[5-amino-1-[[4-(4-pyridinyl)-1-piperazinyl)carbonyl]pentyl]amino]-1-[(3,5-dibromo-4-hydroxyphenyl)methyl]-2-oxoethyl]-4(1,4-dihydro-2-oxo-3(2H0-quinazolinyl)-.[R-(R*,S*)]], the “baseline values of plasma BIBN4096BS” value in data set [1] is recorded as “about 10 ng/mL”. Compound `CN(C)c1ccc(CNC(=O)c2ccccc2O)cc1` [Compound 4, N-(4-dimethylaminobenzyl) salicylamide] returned a melting point of 129 to 132 °C.

For `NC(=O)c1ccc(CCCCCCN2CCOCC2)cc1O` [Compound 5, 4-(6-morpholin-4-ylhexyl)-salicylamide], the melting point was in the range of 70 to 73 °C. Still for that read-out and setting: the same measure for `COc1ccc(C(=O)NCCCCCCCCN)c(O)c1` [Compound 18, N-(2-hydroxy-4-methoxybenzoyl)-1,8-diaminooctane]: 151 to 153 °C.

For orientation: melting point means the temperature, or range, at which the solid turns liquid.

(Values after patent US7700775B2, “Compounds and compositions for delivering active agents” (Emisphere Technologies, Inc., priority 2001, dated 2010).)
